Laboratory results: patent publication US20250344734A1, “UNSATURATED FATTY ACIDS AND THEIR USE TO MODIFY TASTE” (Firmenich Incorporated, priority 2022, published 2025)

Assays:
Assay type in all cases: cell-based
[1] = biological target: T1, T2R08 (TAS2R08) (Homo sapiens, UniProt Q9NYW2); test: FLIPR calcium assay, block of bitter agonist response, T2R08; conditions: unsaturated fatty acid concentration of 200 µM, cells stimulated with known bitter agonist, read-out: percentage block of cellular response over baseline, 08
T1 construct: expressed in transfected cells; host or cells: cells expressing a promiscuous G protein (e.g., G16g44)
T1 sequence (Q9NYW2 1-309): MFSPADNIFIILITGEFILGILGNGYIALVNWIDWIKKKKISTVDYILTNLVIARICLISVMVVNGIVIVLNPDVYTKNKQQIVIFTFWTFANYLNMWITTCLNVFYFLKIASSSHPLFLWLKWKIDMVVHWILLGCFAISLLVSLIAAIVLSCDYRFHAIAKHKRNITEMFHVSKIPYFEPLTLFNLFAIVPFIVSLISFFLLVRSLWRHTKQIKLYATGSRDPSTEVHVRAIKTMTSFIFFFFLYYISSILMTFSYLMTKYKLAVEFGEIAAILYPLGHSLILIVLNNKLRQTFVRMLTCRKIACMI
Protocol: (§1) Cells expressing a promiscuous […] (e.g., G16g44) were transfected with vectors encoding 18 functional bitter receptor cDNAs, with one receptor per transfection. The cells were transfected directly in 384-well format high-density plates and incubated for 28 hours. Later, cells were loaded with the Ca-specific dye Fluo4-AM. After an incubation of 60 minutes, excess dye is washed off, and cells are stimulated with a known bitter agonist for each receptor and various unsaturated fatty acids. Changes in intracellular fluorescence are recorded using a FLIPR instrument. Bitter antagonists and corresponding receptors are identified based on percentage inhibition of agonist's activity on a given receptor.
(§2) The above protocol was carried out using 16 different unsaturated fatty acids. A particular T2R receptor was identified as being antagonized by a particular unsaturated fatty acid if it triggered a >25% block of agonist's cellular response at 200 μM concentration of unsaturated fatty acid. […] Table 2 indicates the sixteen (16) compounds tested by their compound number from Table 1 above. The 18 bitter taste receptors screened are the human bitter taste receptors we named. T2R01 (TAS2R01), T2R03 (TAS2R03), T2R04 (TAS2R04), T2R07 (TAS2R07), T2R08 (TAS2R08), T2R09 (TAS2R09), T2R10 (TAS2R10), T2R13 (TAS2R13), T2R14 (TAS2R14), T2R16 (TAS2R16), T2R54 (TAS2R39, T2R61 (TAS2R43), T2R63 (TA2R20), T2R64 (TAS2R31), T2R65 (TAS2R19), T2R67 (TAS2R50), T2R71 (TAS2R41), and T2R75 (TAS2R46). The corresponding IUPHAR nomenclature for each receptor is given in parenthesis. In Table 2, these receptors are identified by the last two digits. For example, T2R01 is indicated as 01. Table 2 reports the percentage block of cellular response over baseline at an unsaturated fatty acid concentration of 200 µM.

[2] = biological target: T2, T2R10 (TAS2R10) (Homo sapiens, UniProt Q9NYW0); test: FLIPR calcium assay, block of bitter agonist response, T2R10; conditions: unsaturated fatty acid concentration of 200 µM, cells stimulated with known bitter agonist, read-out: percentage block of cellular response over baseline, 10
T2 construct: expressed in transfected cells; host or cells: cells expressing a promiscuous G protein (e.g., G16g44)
T2 sequence (Q9NYW0 1-307): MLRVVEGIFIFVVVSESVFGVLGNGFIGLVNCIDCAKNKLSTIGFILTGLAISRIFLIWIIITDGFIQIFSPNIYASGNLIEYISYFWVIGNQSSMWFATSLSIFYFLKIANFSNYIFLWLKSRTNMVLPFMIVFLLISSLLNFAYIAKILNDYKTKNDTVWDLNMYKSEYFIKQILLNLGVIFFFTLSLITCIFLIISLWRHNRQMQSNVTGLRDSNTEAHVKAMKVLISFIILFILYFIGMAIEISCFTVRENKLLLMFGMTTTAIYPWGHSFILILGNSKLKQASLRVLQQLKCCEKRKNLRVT
Protocol: as §1, §2

[3] = biological target: T3, T2R01 (TAS2R01) (Homo sapiens, UniProt Q9NYW7); test: FLIPR calcium assay, block of bitter agonist response, T2R01; conditions: unsaturated fatty acid concentration of 200 µM, cells stimulated with known bitter agonist, read-out: percentage block of cellular response over baseline, 01
T3 construct: expressed in transfected cells; host or cells: cells expressing a promiscuous G protein (e.g., G16g44)
T3 sequence (Q9NYW7 1-299): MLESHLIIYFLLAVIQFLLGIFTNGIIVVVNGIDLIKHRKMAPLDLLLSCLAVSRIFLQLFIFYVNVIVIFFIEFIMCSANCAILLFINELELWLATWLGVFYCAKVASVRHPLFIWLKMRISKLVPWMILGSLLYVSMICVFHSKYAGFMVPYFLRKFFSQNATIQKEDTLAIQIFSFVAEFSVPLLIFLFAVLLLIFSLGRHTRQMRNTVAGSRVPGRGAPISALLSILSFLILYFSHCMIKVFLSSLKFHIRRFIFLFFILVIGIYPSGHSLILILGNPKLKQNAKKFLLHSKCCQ
Protocol: as §1, §2

[4] = biological target: T4, T2R14 (TAS2R14) (Homo sapiens, UniProt Q9NYV8); test: FLIPR calcium assay, block of bitter agonist response, T2R14; conditions: unsaturated fatty acid concentration of 200 µM, cells stimulated with known bitter agonist, read-out: percentage block of cellular response over baseline, 14
T4 construct: expressed in transfected cells; host or cells: cells expressing a promiscuous G protein (e.g., G16g44)
T4 sequence (Q9NYV8 1-317): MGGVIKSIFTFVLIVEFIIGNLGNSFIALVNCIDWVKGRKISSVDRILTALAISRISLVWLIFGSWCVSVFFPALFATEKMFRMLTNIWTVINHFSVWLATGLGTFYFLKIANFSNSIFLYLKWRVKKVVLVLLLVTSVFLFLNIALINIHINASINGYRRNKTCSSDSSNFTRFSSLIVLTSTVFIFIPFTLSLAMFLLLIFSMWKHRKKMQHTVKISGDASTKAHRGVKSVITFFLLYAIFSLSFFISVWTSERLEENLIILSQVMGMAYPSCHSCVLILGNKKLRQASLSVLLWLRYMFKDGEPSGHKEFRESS
Protocol: as §1, §2

[5] = biological target: T5, T2R54 (TAS2R39 (Homo sapiens, UniProt P59534)); test: FLIPR calcium assay, block of bitter agonist response, T2R54; conditions: unsaturated fatty acid concentration of 200 µM, cells stimulated with known bitter agonist
T5 construct: expressed in transfected cells; host or cells: cells expressing a promiscuous G protein (e.g., G16g44)
T5 sequence (P59534 1-338): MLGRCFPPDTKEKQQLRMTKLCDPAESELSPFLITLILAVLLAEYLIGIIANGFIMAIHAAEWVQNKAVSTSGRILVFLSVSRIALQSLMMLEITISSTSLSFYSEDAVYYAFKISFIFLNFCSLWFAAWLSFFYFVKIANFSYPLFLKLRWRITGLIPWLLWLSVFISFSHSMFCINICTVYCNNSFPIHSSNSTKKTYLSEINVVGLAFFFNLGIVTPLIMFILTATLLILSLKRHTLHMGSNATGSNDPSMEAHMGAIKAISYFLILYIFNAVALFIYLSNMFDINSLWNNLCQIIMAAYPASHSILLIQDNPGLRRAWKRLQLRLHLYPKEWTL
Protocol: as §1, §2

[6] = biological target: T6, T2R75 (TAS2R46) (Homo sapiens, UniProt P59540); test: FLIPR calcium assay, block of bitter agonist response, T2R75; conditions: unsaturated fatty acid concentration of 200 µM, cells stimulated with known bitter agonist
T6 construct: expressed in transfected cells; host or cells: cells expressing a promiscuous G protein (e.g., G16g44)
T6 sequence (P59540 1-309): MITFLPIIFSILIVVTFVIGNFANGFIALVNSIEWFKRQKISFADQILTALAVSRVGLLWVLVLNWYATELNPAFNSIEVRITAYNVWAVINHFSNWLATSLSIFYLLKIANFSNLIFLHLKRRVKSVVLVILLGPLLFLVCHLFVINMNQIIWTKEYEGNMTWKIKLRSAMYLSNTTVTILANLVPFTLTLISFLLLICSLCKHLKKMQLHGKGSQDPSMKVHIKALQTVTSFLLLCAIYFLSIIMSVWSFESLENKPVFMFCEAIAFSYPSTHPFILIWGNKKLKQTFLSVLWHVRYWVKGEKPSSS
Protocol: as §1, §2

SMILES | inhibition at 200 µM [1] [%] | inhibition at 200 µM [2] [%] | inhibition at 200 µM [3] [%] | inhibition at 200 µM [4] [%] | percentage block of cellular response over baseline, 54 [5] [%] | percentage block of cellular response over baseline, 75 [6] [%]
CCC/C=C/C(=O)O [Compound 101] | > 25 | > 25 | – | – | – | –
CCCCCC/C=C/C(=O)O [Compound 104] | > 40 | > 60 | > 35 | > 40 | – | –
CCCCCCC/C=C/C(=O)O [Compound 105] | > 55 | > 95 | > 60 | 50 | – | –
CCCCCCCC/C=C/C(=O)O [Compound 106] | > 70 | > 95 | 80 | 80 | – | –
CCCCCCCCC/C=C/C(=O)O [Compound 107] | > 70 | > 95 | 90 | > 90 | – | –
C=CCCCCCC(=O)O [Compound 115] | – | > 25 | – | – | – | –
C=CCCCCCCC(=O)O [Compound 116] | > 40 | > 35 | > 25 | – | – | –
C=CCCCCCCCC(=O)O [Compound 117] | > 55 | > 70 | 50 | > 25 | >80 | 40
C=CCCCCCCCCC(=O)O [Compound 118] | 65 | > 75 | > 70 | > 65 | >80 | 75

More lines, now with the values ahead:

inhibition at 200 µM [1] [%] | inhibition at 200 µM [2] [%] | inhibition at 200 µM [3] [%] | inhibition at 200 µM [4] [%] | percentage block of cellular response over baseline, 54 [5] [%] | percentage block of cellular response over baseline, 75 [6] [%] | SMILES
50 | > 95 | > 50 | > 40 | – | – | C=CCCCCCCCCCCC(=O)O [Compound 120]
> 25 | > 30 | – | > 25 | – | – | CC(C)/C=C/CCCCC(=O)O [Compound 123]
> 60 | > 80 | 55 | > 50 | – | – | CCCCCC/C=C\CCCC(=O)O [Compound 124]
– | 50 | > 30 | – | >90 | 35 | CC(C)=CCCC(C)CC(=O)O (stereo not drawn) [Compound 127]
> 25 | > 90 | 50 | – | >80 | 40 | CC(C)=CCCC(C)=CC(=O)O [Compound 128]
